Assay results from patent publication US20250101485A1, “METHODS OF PRODUCING C[…] ACID WHEY” (priority 2022, published 2025).
“Also recorded” adds a separate entry of the source.

B1: Y27R: variant of the R domain (lycopene cyclase) of CarRP with the substitution Y27R (protein)
chain: MLLTYMEVHLYYTLPVLGVLSWLSRPRYTATDALKFKFLTLVAFTTASAWDNYIVYHKAWSYCPTCVTAVIGYVPLEEYMFFIIMTLLTVAFTNLVMRWHLHSFFIRPETPVMQSVLVRLVPITALLITAYKAWHLAVPGKPLFYGSCILWYACPVLALLWFGAGEYMMRRPLAVLVSIALPTLFLCWVDVVAIGAGTWDISLATSTGKFVVPHLPVEEFMFFALINTVLVFGTCAI

Assays:
lycopene cyclase (CarRP) [1] = target: T1, lycopene cyclase (CarRP) (Mucor circinelloides f. lusitanicus, UniProt Q9UUQ6); test: In vitro enzymatic assay of lycopene cyclase in yeast microsomes; assay type: biochemical; settings: wild type CarRP (or CarR); lycopene 50˜350 mol/L as substrate, 30° C., 16 h
T1 construct: made in house; host or cells: Yarrowia lipolytica (po1f-derived strains); crude microsomal fraction
T1 sequence (Q9UUQ6 whole entry): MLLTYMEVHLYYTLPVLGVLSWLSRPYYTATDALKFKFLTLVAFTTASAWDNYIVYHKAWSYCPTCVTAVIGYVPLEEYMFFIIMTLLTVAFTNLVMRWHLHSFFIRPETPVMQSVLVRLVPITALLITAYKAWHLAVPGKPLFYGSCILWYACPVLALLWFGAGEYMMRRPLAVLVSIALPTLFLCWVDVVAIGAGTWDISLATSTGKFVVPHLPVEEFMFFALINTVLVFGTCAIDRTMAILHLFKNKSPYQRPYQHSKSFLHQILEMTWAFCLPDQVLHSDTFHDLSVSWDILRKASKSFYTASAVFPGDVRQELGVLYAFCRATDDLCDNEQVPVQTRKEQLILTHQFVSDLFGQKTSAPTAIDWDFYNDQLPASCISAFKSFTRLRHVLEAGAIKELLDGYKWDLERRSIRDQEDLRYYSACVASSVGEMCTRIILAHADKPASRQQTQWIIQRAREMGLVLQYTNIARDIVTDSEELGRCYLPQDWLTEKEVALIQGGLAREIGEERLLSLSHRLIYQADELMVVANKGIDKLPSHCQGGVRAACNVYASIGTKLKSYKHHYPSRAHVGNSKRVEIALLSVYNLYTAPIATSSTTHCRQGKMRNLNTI
Method: (§1) To test this hypothesis, possible correlations between lycopene cyclase activity and lycopene concentration were examined using an in vitro enzymatic assay that employed a yeast microsomal system, as CarRP is predicted to be a membrane protein with six transmembrane helices (FIG. 26). […] This supported the hypothesis that lycopene cyclase was substrate-inhibited, thus creating a major bottleneck in carotenoid biosynthesis.
(§2) Yeast microsomes for in vitro enzymatic assays were prepared as described previously (Pompon et al., 1996). Briefly, strains harboring wild type or mutated CarRP were grown overnight in YNB media at 30° C. and then inoculated into 200 mL YNB media to an initial OD600 of 0.1. After 24 h cultivation, cells were collected by centrifugation at 4,000 rpm for 10 min. Resuspension of the cells in TEK buffer (50 mM Tris-HCl, pH 6.8, 1 mM EDTA, 0.1 M KCl) followed, and the solution was kept at room temperature for 5 min. Afterwards, the cells were recovered by centrifugation, washed in TES buffer (50 mM Tris-HCl, pH 6.8, 1 mM EDTA, 0.6 M sorbitol), resuspended in TESM buffer (50 mM Tris-HCl, pH 6.8, 1 mM EDTA, 0.6 M sorbitol, 14 mM 2-mercaptoethanol), and left at room temperature for 10 min. […] The solution was vortex for 10 min, and the organic phase was collected by centrifugation and analyzed by HPLC.

lycopene cyclase (CarRP) [2] = target: T2, lycopene cyclase (CarRP) (Mucor circinelloides f. lusitanicus, UniProt Q9UUQ6, Y27R); test: as above; assay type: biochemical; settings: CarRP (or CarR) variant compared to wild type; relative catalytic activity, FIG. 16D
T2 construct: made in house; host or cells: Yarrowia lipolytica (po1f-derived strains); crude microsomal fraction
T2 sequence (Q9UUQ6 whole entry Y27R): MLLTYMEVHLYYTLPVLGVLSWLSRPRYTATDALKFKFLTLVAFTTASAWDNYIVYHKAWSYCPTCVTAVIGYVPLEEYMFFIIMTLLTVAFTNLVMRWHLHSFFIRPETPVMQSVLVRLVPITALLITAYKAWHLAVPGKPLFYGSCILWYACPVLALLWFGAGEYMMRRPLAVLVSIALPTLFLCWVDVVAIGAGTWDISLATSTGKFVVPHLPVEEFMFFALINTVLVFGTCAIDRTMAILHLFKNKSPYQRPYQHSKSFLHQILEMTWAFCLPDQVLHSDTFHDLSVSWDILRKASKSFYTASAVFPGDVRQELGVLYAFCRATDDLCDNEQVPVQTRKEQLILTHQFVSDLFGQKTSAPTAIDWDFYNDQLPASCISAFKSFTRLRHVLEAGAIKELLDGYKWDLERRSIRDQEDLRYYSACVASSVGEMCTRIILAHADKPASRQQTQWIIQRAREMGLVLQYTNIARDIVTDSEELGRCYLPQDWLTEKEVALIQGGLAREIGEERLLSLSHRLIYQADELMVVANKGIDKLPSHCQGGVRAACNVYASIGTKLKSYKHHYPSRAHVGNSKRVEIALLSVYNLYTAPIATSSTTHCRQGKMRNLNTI
Method: as §1, §2

| Molecule | lycopene cyclase activity with respect to lycopene concentration (substrate inhibition) (lycopene cyclase (CarRP) [1]) | substrate inhibition of lycopene cyclase variant by lycopene (lycopene cyclase (CarRP) [2]) |
| --- | --- | --- |
| CC(C)=CCC/C(C)=C/C=C/C(C)=C/C=C/C(C)=C/C=C/C=C(C)/C=C/C=C(C)/C=C/C=C(\C)CCC=C(C)C [lycopene] | bi-phasic; also recorded: inhibited its downstream enzyme, lycopene cyclase, through substrate inhibition |  |
| B1 |  | complete loss of substrate inhibition without reduction in enzyme activity; also recorded: completely free of substrate inhibition |
